Experimental data from patent US8883792B2, “Substituted isoquinoline derivative” (D. Western Therapeutics Institute, Inc., priority 2010, dated 2014).
Structures can show the parent of a compound that is named as a salt.

Test system: rabbits (New Zealand White)
Test: Ocular hypotensive effect in rabbits
Type: in vivo, rabbit
Conditions: male New Zealand White rabbits, 0.04 mL eye drop, concentration of 1% (w/v) or lower, maximum ocular hypotensive rate vs vehicle-treated contralateral eye
Description: The compound of the present invention was administered to rabbits (New Zealand White, sex: male, 3 to 6 per group) and evaluated for its ocular hypotensive effect.
Each test compound was dissolved in a vehicle 1 (1.04 g of sodium dihydrogen phosphate dihydrate and 0.5 g of sodium chloride dissolved in purified water and then adjusted to pH 7.0 with sodium hydroxide to make the total amount to 100 mL) or a vehicle 2 (2% (w/v) aqueous boric acid solution) to prepare a test compound solution with a predetermined concentration.
The intraocular pressures of the rabbits were measured using Tiolat TonoVet handheld tonometer immediately before administration of test compound. The test compound solution and the vehicle were dropped at a volume of 0.04 mL to one eye and the contralateral eye, respectively, and the intraocular pressures were measured over time in the same way as above. The rate of the intraocular pressure of the eye receiving the test compound solution to that of the eye receiving the vehicle was calculated as an ocular hypotensive rate.

SMILES | Ocular hypotensive activity
C[C@H](CNCCc1ccccc1Cl)NS(=O)(=O)c1ccc2cnccc2c1 [Example 38, (R)—N-{1-(2-chlorophenethylamino)propan-2-yl}isoquinoline-6-sulfonamide dihydrochloride] | ++ (maximum ocular hypotensive rate of 15% or more)
C[C@H](CNCCc1ccc(Cl)cc1)NS(=O)(=O)c1ccc2cnccc2c1 [Example 39, (R)—N-{1-(4-chlorophenethylamino)propan-2-yl}isoquinoline-6-sulfonamide dihydrochloride] | ++ (maximum ocular hypotensive rate of 15% or more)
C[C@H](CNCCc1cccs1)NS(=O)(=O)c1ccc2cnccc2c1.Cl [Example 40, (R)—N-[1-{2-(thiophen-2-yl)ethylamino}propan-2-yl]isoquinoline-6-sulfonamide hydrochloride] | ++ (maximum ocular hypotensive rate of 15% or more)
C[C@H](CNCCc1ccsc1)NS(=O)(=O)c1ccc2cnccc2c1.Cl [Example 41, (R)—N-[1-{2-(thiophen-3-yl)ethylamino}propan-2-yl]isoquinoline-6-sulfonamide hydrochloride] | ++ (maximum ocular hypotensive rate of 15% or more)
C[C@H](CNCCc1ccncc1)NS(=O)(=O)c1ccc2cnccc2c1 [Example 42, (R)—N-[1-{2-(pyridin-4-yl)ethylamino}propan-2-yl]isoquinoline-6-sulfonamide trihydrochloride] | + (maximum ocular hypotensive rate of 5% or more and less than 15%)
C[C@H](CNC/C=C/c1ccc(Br)cc1)NS(=O)(=O)c1ccc2cnccc2c1 [Example 43, (R, E)-N-[1-{3-(4-bromophenyl)allylamino}propan-2-yl]isoquinoline-6-sulfonamide dihydrochloride] | ++ (maximum ocular hypotensive rate of 15% or more)
C[C@H](CNC/C=C/c1ccccc1)NS(=O)(=O)c1ccc2cnccc2c1 [Example 44, (R, E)-N-{1-(cinnamylamino)propan-2-yl}isoquinoline-6-sulfonamide dihydrochloride] | + (maximum ocular hypotensive rate of 5% or more and less than 15%)
C[C@H](CNCCOc1ccccc1)NS(=O)(=O)c1ccc2cnccc2c1 [Example 45, (R)—N-{1-(2-phenoxyethylamino)propan-2-yl}isoquinoline-6-sulfonamide dihydrochloride] | ++ (maximum ocular hypotensive rate of 15% or more)
C[C@H](CNCCc1cccc2ccccc12)NS(=O)(=O)c1ccc2cnccc2c1.Cl [Example 46] | ++ (maximum ocular hypotensive rate of 15% or more)
C#CCNC[C@@H](C)NS(=O)(=O)c1ccc2cnccc2c1 [Example 47, (R)—N-{1-(prop-2-yn-1-ylamino)propan-2-yl}isoquinoline-6-sulfonamide dihydrochloride] | ++ (maximum ocular hypotensive rate of 15% or more)
CO[C@H](CNC[C@@H](C)NS(=O)(=O)c1ccc2cnccc2c1)c1ccccc1.Cl [Example 48, N—[(R)-1-{(S)-2-methoxy-2-phenylethylamino}propan-2-yl]isoquinoline-6-sulfonamide hydrochloride] | ++ (maximum ocular hypotensive rate of 15% or more)
C[C@H](CNCCc1cccnc1)NS(=O)(=O)c1ccc2cnccc2c1.Cl [Example 49, (R)—N-[1-{2-(pyridin-3-yl)ethylamino}propan-2-yl]isoquinoline-6-sulfonamide hydrochloride] | ++ (maximum ocular hypotensive rate of 15% or more)
C[C@H](CNCC[C@@H](O)c1ccccc1)NS(=O)(=O)c1ccc2cnccc2c1.Cl [Example 50, N—[(R)-1-{(R)-3-hydroxy-3-phenylpropylamino}propan-2-yl]isoquinoline-6-sulfonamide hydrochloride] | + (maximum ocular hypotensive rate of 5% or more and less than 15%)
C[C@H](CNCCc1cccc(F)c1)NS(=O)(=O)c1ccc2cnccc2c1.Cl [Example 52, (R)—N-{1-(3-fluorophenethylamino)propan-2-yl}isoquinoline-6-sulfonamide hydrochloride] | ++ (maximum ocular hypotensive rate of 15% or more)
C[C@H](CNCCc1cccc(Cl)c1)NS(=O)(=O)c1ccc2cnccc2c1 [Example 54, (R)—N-{1-(3-chlorophenethylamino)propan-2-yl}isoquinoline-6-sulfonamide hydrochloride] | ++ (maximum ocular hypotensive rate of 15% or more)
C[C@H](CNCCc1ccc(Br)cc1)NS(=O)(=O)c1ccc2cnccc2c1.Cl [Example 55, (R)—N-{1-(4-bromophenethylamino)propan-2-yl}isoquinoline-6-sulfonamide hydrochloride] | ++ (maximum ocular hypotensive rate of 15% or more)
Cc1ccccc1CCNC[C@@H](C)NS(=O)(=O)c1ccc2cnccc2c1.Cl [Example 56, (R)—N-{1-(2-methylphenethylamino)propan-2-yl}isoquinoline-6-sulfonamide hydrochloride] | ++ (maximum ocular hypotensive rate of 15% or more)
Cc1cccc(CCNC[C@@H](C)NS(=O)(=O)c2ccc3cnccc3c2)c1.Cl [Example 57, (R)—N-{1-(3-methylphenethylamino)propan-2-yl}isoquinoline-6-sulfonamide hydrochloride] | ++ (maximum ocular hypotensive rate of 15% or more)
C[C@H](CNCCc1ccc([N+](=O)[O-])cc1)NS(=O)(=O)c1ccc2cnccc2c1.Cl [Example 59, (R)—N-{1-(4-nitrophenethylamino)propan-2-yl}isoquinoline-6-sulfonamide hydrochloride] | ++ (maximum ocular hypotensive rate of 15% or more)
C[C@H](CNCCc1ccc(C(F)(F)F)cc1)NS(=O)(=O)c1ccc2cnccc2c1.Cl [Example 60, (R)—N-{1-(4-trifluoromethylphenethylamino)propan-2-yl}isoquinoline-6-sulfonamide hydrochloride] | ++ (maximum ocular hypotensive rate of 15% or more)
C[C@H](CNC1CCCCC1)NS(=O)(=O)c1ccc2cnccc2c1.Cl [Example 61, (R)—N-{1-(cyclohexylamino)propan-2-yl}isoquinoline-6-sulfonamide hydrochloride] | ++ (maximum ocular hypotensive rate of 15% or more)
C[C@H](CNC1Cc2ccccc2C1)NS(=O)(=O)c1ccc2cnccc2c1.Cl [Example 62, (R)—N-{1-(2,3-dihydro-1H-inden-2-ylamino)propan-2-yl}isoquinoline-6-sulfonamide hydrochloride] | ++ (maximum ocular hypotensive rate of 15% or more)
C[C@H](CNCCc1c[nH]c2ccc(Cl)cc12)NS(=O)(=O)c1ccc2cnccc2c1.Cl [Example 63, (R)—N-[1-{2-(5-chloro-1H-indol-3-yl)ethylamino}propan-2-yl]isoquinoline-6-sulfonamide hydrochloride] | + (maximum ocular hypotensive rate of 5% or more and less than 15%)
C[C@H](CNCCc1cn(C)c2ccccc12)NS(=O)(=O)c1ccc2cnccc2c1.Cl [Example 64, (R)—N-[1-{2-(1-methyl-1H-indol-3-yl)ethylamino}propan-2-yl]isoquinoline-6-sulfonamide hydrochloride] | ++ (maximum ocular hypotensive rate of 15% or more)
